Values quoted from earlier work, collected in patent publication US6346530B1, “Process for the preparation of a bioavailable oral dosage form of cefuroxime axetil” (Ranbaxy Laboratories Limited, priority 1999, dated 2002).

Details: background, result in words

SMILES	Bioavailability upon oral administration
CO/N=C(\C(=O)N[C@@H]1C(=O)N2C(C(=O)OC(C)OC(C)=O)=C(COC(N)=O)CS[C@H]12)c1ccco1 (some centres unmarked) [amorphous form of cefuroxime axetil, cefuroxime axetil]	high bioavailability
CO/N=C(\C(=O)N[C@@H]1C(=O)N2C(C(=O)OC(C)OC(C)=O)=C(COC(N)=O)CS[C@H]12)c1ccco1 (some centres unmarked) [Crystalline cefuroxime axetil, cefuroxime axetil]	does not exhibit adequate bioavailability
